# Laboratory results reported in ChEMBL document CHEMBL1201862, “PubChem BioAssay data set” (2004).
# Active and inactive are the calls of the source.
# Tests used:
# [1] = system: H9c2; experiment: cells; format: functional, cell-based; details: Rattus norvegicus, H9c2, Myocardium;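 note: confirmatory concentration-response retest of ultra-high-throughput screening hits for modulation of myocardial damage; cell death induced by hydrogen peroxide oxidative stress; compound pretreatment for 60 min then peroxide exposure for 2 h; potency is for protecting the cells against peroxide damage rather than for killing them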
# [2] = Luminescence Cell-Based Dose Confirmation HTS to Identify Inhibitors of Platelet Dense Granule Release. [Related pubchem assays: 1663 (Primary HTS), 1678 (Summary of Project)]; format: functional
# [3] = target: Luciferin 4-monooxygenase (Photinus pyralis, UniProt P08659); experiment: firefly luciferase enzyme inhibitors, dose response, biochemical, luminescence (AID 1891)
# Luciferin 4-monooxygenase, sequence (P08659 whole entry): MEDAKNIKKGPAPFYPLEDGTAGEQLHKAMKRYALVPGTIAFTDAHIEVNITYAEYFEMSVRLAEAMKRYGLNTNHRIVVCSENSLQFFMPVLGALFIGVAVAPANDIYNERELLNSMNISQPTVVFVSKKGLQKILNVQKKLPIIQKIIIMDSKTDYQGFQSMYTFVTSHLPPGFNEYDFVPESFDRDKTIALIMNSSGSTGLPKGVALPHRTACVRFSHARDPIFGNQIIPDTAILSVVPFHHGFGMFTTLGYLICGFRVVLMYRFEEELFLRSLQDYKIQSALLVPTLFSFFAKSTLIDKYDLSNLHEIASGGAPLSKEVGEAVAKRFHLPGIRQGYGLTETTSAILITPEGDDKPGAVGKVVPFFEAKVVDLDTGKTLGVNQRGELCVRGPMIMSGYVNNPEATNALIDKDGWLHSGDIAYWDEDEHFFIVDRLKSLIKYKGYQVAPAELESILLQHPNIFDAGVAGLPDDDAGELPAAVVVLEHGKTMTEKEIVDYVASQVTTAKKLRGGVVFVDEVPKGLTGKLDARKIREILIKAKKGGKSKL
# [4] = target: T1, Ubiquitin-conjugating enzyme E2 N (Homo sapiens, UniProt P61088); format: functional;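 note: Dose-response confirmation in a TR-FRET assay detecting UBC13-driven polyubiquitin chain formation, inhibition measured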
# T1 sequence (P61088 whole entry): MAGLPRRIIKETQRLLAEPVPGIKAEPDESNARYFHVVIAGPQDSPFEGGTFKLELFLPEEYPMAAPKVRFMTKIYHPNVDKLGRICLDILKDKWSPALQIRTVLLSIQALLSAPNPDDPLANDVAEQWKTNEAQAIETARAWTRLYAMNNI
# [5] = target: Cytochrome P450 2D6 (Homo sapiens, UniProt P10635);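 note: CYP2D6 member of a cytochrome P450 panel assay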
# Cytochrome P450 2D6, sequence (P10635 whole entry): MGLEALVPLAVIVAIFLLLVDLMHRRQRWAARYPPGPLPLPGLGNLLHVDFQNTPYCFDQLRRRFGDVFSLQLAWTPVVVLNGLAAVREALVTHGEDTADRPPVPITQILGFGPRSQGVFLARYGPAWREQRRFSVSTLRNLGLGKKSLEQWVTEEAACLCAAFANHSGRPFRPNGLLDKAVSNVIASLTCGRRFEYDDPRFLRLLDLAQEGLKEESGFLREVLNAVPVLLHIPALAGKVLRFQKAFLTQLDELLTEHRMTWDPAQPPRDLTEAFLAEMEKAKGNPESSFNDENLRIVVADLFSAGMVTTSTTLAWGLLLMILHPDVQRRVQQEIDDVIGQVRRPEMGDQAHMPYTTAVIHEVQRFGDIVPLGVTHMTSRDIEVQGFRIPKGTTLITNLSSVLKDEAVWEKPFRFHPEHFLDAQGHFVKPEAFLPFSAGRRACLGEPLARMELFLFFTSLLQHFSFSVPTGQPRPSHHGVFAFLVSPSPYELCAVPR
# [6] = target: Cytochrome P450 2C9 (Homo sapiens, UniProt P11712)
# Cytochrome P450 2C9, sequence (P11712 whole entry): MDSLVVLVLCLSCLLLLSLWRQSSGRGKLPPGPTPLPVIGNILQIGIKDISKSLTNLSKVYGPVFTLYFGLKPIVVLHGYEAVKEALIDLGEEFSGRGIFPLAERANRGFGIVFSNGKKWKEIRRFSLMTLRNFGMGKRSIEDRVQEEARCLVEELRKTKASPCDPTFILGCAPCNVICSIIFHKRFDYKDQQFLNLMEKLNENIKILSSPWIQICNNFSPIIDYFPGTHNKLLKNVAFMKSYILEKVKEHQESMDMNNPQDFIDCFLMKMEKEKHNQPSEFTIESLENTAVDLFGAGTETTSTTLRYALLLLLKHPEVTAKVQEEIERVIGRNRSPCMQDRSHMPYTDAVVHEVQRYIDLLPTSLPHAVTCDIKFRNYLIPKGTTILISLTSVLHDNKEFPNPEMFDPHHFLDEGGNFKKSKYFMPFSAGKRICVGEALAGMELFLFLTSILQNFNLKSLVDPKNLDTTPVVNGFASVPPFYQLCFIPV
# [7] = target: Cytochrome P450 2C19 (Homo sapiens, UniProt P33261); experiment: Cytochrome panel assay with activity outcomes. Panel member name: p450-cyp2c19 Compounds with AC50 equal or less than 10 uM are considered active; format: functional; details: read-out: AC50
# Cytochrome P450 2C19, sequence (P33261 whole entry): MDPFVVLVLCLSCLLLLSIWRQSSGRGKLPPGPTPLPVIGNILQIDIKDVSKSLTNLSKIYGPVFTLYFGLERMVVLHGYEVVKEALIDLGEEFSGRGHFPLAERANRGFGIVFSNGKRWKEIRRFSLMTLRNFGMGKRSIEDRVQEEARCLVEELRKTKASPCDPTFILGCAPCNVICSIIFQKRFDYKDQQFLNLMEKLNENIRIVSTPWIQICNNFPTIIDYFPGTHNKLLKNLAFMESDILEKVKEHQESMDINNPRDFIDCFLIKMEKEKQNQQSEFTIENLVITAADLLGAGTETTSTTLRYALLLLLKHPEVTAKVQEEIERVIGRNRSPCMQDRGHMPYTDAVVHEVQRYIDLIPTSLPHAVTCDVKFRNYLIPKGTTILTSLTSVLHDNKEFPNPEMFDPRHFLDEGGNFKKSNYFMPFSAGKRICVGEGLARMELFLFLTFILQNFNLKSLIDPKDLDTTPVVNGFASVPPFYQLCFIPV
# [8] = system: Vero; experiment: cells; format: functional; details: Chlorocebus sabaeus
# [9] = target: T2, Protein RecA (Mycobacterium tuberculosis, UniProt P9WHJ3); experiment: Fluorescence Cell-Free Homogeneous Dose Retest to Identify Inhibitors of RecA-Intein Splicing Activity. [Related pubchem assays (depositor defined):AID2097, AID2223, AID489010, AID492950]; format: functional
# T2 sequence (P9WHJ3 whole entry): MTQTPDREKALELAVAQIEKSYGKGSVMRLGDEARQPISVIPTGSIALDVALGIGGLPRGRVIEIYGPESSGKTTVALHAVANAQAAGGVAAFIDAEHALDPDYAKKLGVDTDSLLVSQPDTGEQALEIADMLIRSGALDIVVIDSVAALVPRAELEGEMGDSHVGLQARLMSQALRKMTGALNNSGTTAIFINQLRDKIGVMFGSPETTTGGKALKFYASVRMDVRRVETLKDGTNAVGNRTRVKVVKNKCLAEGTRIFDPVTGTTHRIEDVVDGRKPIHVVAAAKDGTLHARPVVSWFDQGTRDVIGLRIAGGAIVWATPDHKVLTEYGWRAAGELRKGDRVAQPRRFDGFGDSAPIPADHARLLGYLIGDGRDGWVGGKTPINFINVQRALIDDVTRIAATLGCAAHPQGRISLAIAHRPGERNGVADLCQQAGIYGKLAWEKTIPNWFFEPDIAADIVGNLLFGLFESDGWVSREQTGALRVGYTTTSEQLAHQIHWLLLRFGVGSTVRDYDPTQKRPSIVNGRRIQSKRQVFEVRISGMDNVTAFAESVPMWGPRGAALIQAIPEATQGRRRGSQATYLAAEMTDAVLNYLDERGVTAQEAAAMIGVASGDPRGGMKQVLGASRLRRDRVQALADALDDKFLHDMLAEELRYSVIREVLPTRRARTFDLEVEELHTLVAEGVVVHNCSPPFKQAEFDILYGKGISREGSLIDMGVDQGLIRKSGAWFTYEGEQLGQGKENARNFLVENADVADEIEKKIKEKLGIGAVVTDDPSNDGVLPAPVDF
# [10] = target: T3, Replicative DNA helicase DnaB (Mycobacterium tuberculosis, UniProt P9WMR3); experiment: DnaB intein splicing inhibitors, dose response, biochemical, cell-free fluorescence (AID 449749); format: functional
# T3 sequence (P9WMR3 whole entry): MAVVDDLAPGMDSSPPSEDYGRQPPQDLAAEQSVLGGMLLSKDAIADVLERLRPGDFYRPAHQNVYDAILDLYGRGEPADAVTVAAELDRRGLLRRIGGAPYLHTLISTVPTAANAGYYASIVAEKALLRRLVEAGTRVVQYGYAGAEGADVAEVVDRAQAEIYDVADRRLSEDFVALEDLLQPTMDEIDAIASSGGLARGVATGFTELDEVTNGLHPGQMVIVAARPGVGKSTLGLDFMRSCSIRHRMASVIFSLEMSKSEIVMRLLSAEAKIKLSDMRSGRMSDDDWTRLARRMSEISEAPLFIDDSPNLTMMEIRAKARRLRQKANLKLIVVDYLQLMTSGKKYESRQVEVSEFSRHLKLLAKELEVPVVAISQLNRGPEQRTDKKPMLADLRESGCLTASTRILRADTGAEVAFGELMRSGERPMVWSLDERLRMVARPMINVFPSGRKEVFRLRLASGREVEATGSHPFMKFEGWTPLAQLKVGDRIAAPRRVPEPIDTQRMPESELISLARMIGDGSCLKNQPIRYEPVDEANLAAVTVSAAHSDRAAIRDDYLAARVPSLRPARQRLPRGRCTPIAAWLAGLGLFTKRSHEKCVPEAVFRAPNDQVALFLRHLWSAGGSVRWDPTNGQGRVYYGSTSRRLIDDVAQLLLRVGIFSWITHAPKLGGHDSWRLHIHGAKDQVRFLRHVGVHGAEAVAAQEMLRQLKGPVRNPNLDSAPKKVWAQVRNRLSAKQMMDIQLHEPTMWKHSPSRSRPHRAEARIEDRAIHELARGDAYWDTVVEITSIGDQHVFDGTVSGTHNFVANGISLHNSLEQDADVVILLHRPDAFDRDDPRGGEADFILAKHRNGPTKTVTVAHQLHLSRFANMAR
# [11] = cells; format: functional
# [12] = target: Cytochrome P450 3A4 (Homo sapiens, UniProt P08684);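 note: CYP3A4 tested as one member of a cytochrome P450 panel screen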
# Cytochrome P450 3A4, sequence (P08684 whole entry): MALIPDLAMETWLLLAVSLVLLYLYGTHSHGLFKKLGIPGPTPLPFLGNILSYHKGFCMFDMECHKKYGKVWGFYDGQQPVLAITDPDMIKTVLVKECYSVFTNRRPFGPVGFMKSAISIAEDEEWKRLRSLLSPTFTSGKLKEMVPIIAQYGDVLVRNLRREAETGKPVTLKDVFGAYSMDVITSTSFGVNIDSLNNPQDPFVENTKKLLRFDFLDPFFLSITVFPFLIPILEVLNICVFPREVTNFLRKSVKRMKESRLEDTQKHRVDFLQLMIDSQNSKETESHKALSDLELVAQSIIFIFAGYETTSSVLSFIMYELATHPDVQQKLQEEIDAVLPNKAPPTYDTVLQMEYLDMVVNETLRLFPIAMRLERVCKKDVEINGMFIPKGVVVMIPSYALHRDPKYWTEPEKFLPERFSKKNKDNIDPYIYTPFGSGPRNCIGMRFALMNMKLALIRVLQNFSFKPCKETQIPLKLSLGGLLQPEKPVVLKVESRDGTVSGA
# [13] = target: T4, Cytochrome P450 1A2 (Homo sapiens, UniProt P05177);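 note: PubChem cytochrome P450 panel assay, CYP1A2 panel member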
# T4 sequence (P05177 whole entry): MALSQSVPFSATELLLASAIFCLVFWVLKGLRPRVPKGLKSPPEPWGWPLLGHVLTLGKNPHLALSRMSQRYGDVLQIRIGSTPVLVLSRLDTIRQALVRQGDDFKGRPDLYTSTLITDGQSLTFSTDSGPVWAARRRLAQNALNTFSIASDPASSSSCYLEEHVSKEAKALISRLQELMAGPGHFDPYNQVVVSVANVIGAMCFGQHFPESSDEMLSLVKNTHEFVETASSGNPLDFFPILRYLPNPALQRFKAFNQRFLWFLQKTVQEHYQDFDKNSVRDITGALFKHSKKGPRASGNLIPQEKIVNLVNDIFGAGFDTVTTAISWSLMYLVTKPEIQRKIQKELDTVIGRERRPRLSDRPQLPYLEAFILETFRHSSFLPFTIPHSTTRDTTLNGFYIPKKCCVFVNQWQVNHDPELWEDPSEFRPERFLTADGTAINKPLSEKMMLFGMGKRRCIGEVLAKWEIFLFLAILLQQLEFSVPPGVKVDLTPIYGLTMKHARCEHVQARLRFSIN
structure (smiles),measurement,setting,value
O=C1c2ccccc2NC(c2ccc([N+](=O)[O-])cc2)N1O (stereo unspecified),IC50,[1],10.4 µM (active)
CCCc1cc(=O)oc2c(C)c(OCC(=O)Nc3ccc(CN4CCOCC4)cc3)ccc12,EC50,[2],> 112 µM (not active)
same,EC50,[3],> 112 µM (not active)
CCCC[C@@H]1CN=C(N)N1CCc1cc(C(F)(F)F)cc(C(F)(F)F)c1,IC50,[4],> 20 µM (inactive)
COc1cc(O)ccc1C=O,EC50,[2],> 112 µM (not active)
same,EC50,[3],> 112 µM (not active)
CCOC(=O)CNC(=O)CSc1nc2cc(Br)c(C)nc2[nH]1,IC50,[1],24 µM (active)
COc1ccc(Oc2ncc3nc(C)c(=O)n(-c4ccccc4)c3n2)cc1,AC50,[5],39.8 µM (inconclusive)
same,AC50,[6],10 µM (inconclusive)
same,AC50,[7],39.8 µM (inconclusive)
COc1cccc(C2CC(C(F)(F)F)n3ncc(C(=O)O)c3N2)c1 (stereo unspecified),EC50,[2],> 112 µM (not active)
same,EC50,[3],> 112 µM (not active)
CCn1c(SCC(=O)Nc2ccccc2N2CCCCC2)nc2c1c(=O)n(C)c(=O)n2C,IC50,[1],> 79 µM (inactive)
COc1ccc(-c2nn3c(-c4ccccc4)nnc3s2)cc1OC,IC50,[1],> 79 µM (inactive)
CCOC(=O)c1ccc(NC(=O)CCc2ccc(C)o2)cc1,EC50,[2],> 112 µM (not active)
same,EC50,[3],> 112 µM (not active)
COc1ccc(NC(=O)C2CCCN(c3nn4c(=O)cc(C)nc4s3)C2)c(OC)c1 (stereo unspecified),EC50,[2],> 112 µM (not active)
same,EC50,[3],> 112 µM (not active)
C[C@@H]1CC[C@H]2C(=O)O[C@H](CN=[N+]=[N-])CN2[C@@H]1c1ccc(Br)cc1,AC50,[5],7.94 µM (inconclusive)
same,AC50,[6],3.16 µM (inconclusive)
COC(=O)C1=C(C)N(Cc2ccccc2)C(NCc2cc(OC)c(OC)c(OC)c2)=N[C@H]1CCc1ccccc1,IC50,[4],> 20 µM (inactive)
COc1ccc(N2CCN(c3nc4c(c(=O)n(C)c(=O)n4C)n3Cc3ccccc3)CC2)cc1,EC50,[2],> 112 µM (not active)
same,EC50,[3],18 µM (active)
Cc1nn2c(NCCCN(C)C)c3c(nc2c1-c1ccccc1)CCCC3,CC50,[8],> 25 µM (active)
CCN(CC)S(=O)(=O)c1ccc(N2CCN(S(=O)(=O)c3ccccc3C#N)CC2)nc1,EC50,[9],> 380 µM (inactive)
same,AC50,[10],> 380 µM (inactive)
CC(=O)NC(c1cc(Cl)c2ccccc2c1O)C(C)C (stereo unspecified),IC50,[4],> 20 µM (inactive)
COc1cc2c(cc1OC)CN(CC(=O)Nc1ccccc1C#N)CC2,IC50,[1],34.2 µM (inactive)
Cc1c(NC(=O)CSC(=S)N2CCCC2)c(=O)n(-c2ccccc2)n1C,EC50,[2],25.5 µM (active)
same,EC50,[3],> 112 µM (not active)
CCOC(=O)N1CCN(C(=O)CSc2nc3ccccc3c(=O)n2-c2ccccc2)CC1,IC50,[1],19.5 µM (active)
COC(=O)c1ccccc1NC(=S)NC(=O)c1ccc(C)cc1,EC50,[9],0.239 µM (active)
same,AC50,[10],0.452 µM (active)
O=C(OCc1ccc([N+](=O)[O-])cc1)c1ccc2ccccc2n1,IC50,[11],18 µM (active)
Cc1ccnc(N2C(=O)C3C4CC(C(Br)C4Br)C3C2=O)c1 (stereo unspecified),AC50,[12],25.1 µM (inconclusive)
same,AC50,[6],17.8 µM (inconclusive)
CN(Cc1cc(C(C)(C)C)cc(Br)c1O)Cc1cc(C(C)(C)C)cc(Br)c1O,AC50,[5],2.51 µM (inconclusive)
same,AC50,[6],3.98 µM (inconclusive)
CCCCOc1ccc(-c2nnn(C(C)C(=O)OCC)n2)cc1 (stereo unspecified),IC50,[11],2.83 µM (active)
C/C=C1\COC(C(=O)NCCN2CCCC2)(C(F)(F)F)C=C1C=C1CCCCC1 (stereo unspecified),IC50,[4],> 20 µM (inactive)
COc1ccc(CNC(=O)N[C@@H](CC(C)C)C(=O)O)cc1OC,EC50,[2],> 112 µM (not active)
same,EC50,[3],> 112 µM (not active)
Cc1ccc(S(=O)(=O)N2CCC(C(=O)NCc3cccnc3)CC2)cc1,AC50,[5],12.6 µM (inconclusive)
same,AC50,[6],6.31 µM (inconclusive)
same,AC50,[7],17.8 µM (inconclusive)
COC(=O)/C=C/CSC1=N/C(=C/c2ccc(-n3cncn3)cc2)C(=O)N1,AC50,[6],11.2 µM (inconclusive)
C#CCOCCOCCOCCNc1nc(N2CCN(C(=O)[C@H]([C@@H](C)CC)n3cc([C@@H](N)CC(C)C)nn3)CC2)nc(N2CCN(C(=O)[C@H](Cc3ccc(O)cc3)n3cc([C@@H](N)C(C)CC)nn3)CC2)n1 (stereo partly specified),IC50,[4],> 20 µM (inactive)
COc1ccc(-c2cc(C(F)(F)F)nc(SCC(=O)N3CCOCC3)n2)cc1OC,EC50,[2],15.8 µM (active)
same,EC50,[3],> 112 µM (not active)
COc1[nH]nc(C(=O)Nc2cc(F)ccc2C)c1[N+](=O)[O-],IC50,[11],> 50 µM (active)
C=CCn1c(S)nnc1C(C)NC(=O)c1ccccc1 (stereo unspecified),AC50,[6],17.8 µM (inconclusive)
O=C(CC1Oc2ccccc2NC1=O)NC1CCCC1 (stereo unspecified),EC50,[2],> 112 µM (not active)
same,EC50,[3],> 112 µM (not active)
COc1cc(C#Cc2c(-c3cncn3C)n(C)c3ccc(Br)cc23)cc(OC)c1,IC50,[4],> 20 µM (inactive)
CC(=O)Nc1ccc(OCC(O)Cn2cnc3ccccc32)cc1 (stereo unspecified),AC50,[5],0.00562 µM (inconclusive)
same,AC50,[6],0.0631 µM (inconclusive)
CCN(CC(=O)Nc1ccc2c(c1)OCCO2)C(=O)c1cccc(S(=O)(=O)N2CCOCC2)c1,AC50,[13],12.6 µM (inconclusive)
same,AC50,[6],11.2 µM (inconclusive)
same,AC50,[7],22.4 µM (inconclusive)
NC(=O)c1ccccc1/N=C/c1ccccn1,IC50,[1],22.4 µM (active)
COc1ccc(C/N=C(\C#N)C2=C(O)c3ccccc3C2=O)cc1,IC50,[11],45.7 µM (active)
O=C(N/N=C/c1ccccn1)c1ccc(NC(=O)c2ccc(F)cc2)cc1,EC50,[2],> 112 µM (not active)
same,EC50,[3],> 112 µM (not active)
Cc1ccc(/C=N/NC(=O)CSc2nc3nc(C)cc(C)n3n2)cc1,AC50,[13],4.47 µM (inconclusive)
same,AC50,[6],22.4 µM (inconclusive)
Cc1cc(C(=O)N/N=C/c2ccc(OC(=O)c3ccccc3Br)cc2)[nH]n1,IC50,[11],41.6 µM (active)
